Data on nine compounds can be found in patent US20090131409A1, “1,4,5,6,7,8-HEXAHYDRO -PYRROLO[2,3-d]AZEPINES AND -IMIDAZO[4,5-d]AZEPINES AS MODULATORS OF NUCLEAR RECEPTOR ACTIVITY” (Wyeth, priority 2007, published 2009).

This test concerns the target T1, Gal4/hFXR fusion protein (Homo sapiens, UniProt Q96RI1).
T1 sequence (Q96RI1 262-486 limits assumed): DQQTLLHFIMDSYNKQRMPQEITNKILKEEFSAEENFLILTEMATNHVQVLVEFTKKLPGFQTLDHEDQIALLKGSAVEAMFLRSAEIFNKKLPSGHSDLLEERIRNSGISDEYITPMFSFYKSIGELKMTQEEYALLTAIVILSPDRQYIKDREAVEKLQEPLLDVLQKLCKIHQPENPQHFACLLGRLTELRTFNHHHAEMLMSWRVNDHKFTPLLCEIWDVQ
The test can be described thus: Gal4/hFXR fusion protein agonist activity in human 293 cells (luciferase reporter). A general note: In a reporter assay the amount or activity of a reporter protein is the signal.

Turning to `CC(C)OC(=O)C1CN(C(=O)c2cccc(C(F)(F)F)c2)CC(C)(C)c2cc(C#N)[nH]c21` (stereo not drawn) [iso-propyl 2-cyano-4,4-dimethyl-6-[3-(trifluoromethyl)benzoyl]-1,4,5,6,7,8-hexahydropyrrolo[2,3-d]azepine-8-carboxylate], it took 2700 nM to reach a half-maximal effect (EC50). In the case of `CC(C)OC(=O)C1CN(C(=O)c2ccc(C#N)cc2)CC(C)(C)c2cc(C#N)[nH]c21` (stereo not drawn) [iso-propyl 2-cyano-6-(4-cyanobenzoyl)-4,4-dimethyl-1,4,5,6,7,8-hexahydropyrrolo[2,3-d]azepine-8-carboxylate] it was 5700 nM; in that of `CC(C)OC(=O)C1CN(C(=O)C2CCCCC2)CC(C)(C)c2cc(C#N)[nH]c21` (stereo not drawn) [iso-propyl 2-cyano-6-(cyclohexylcarbonyl)-4,4-dimethyl-1,4,5,6,7,8-hexahydropyrrolo[2,3-d]azepine-8-carboxylate], 1900 nM; in that of `CC(C)OC(=O)C1CN(C(=O)c2cccc(Cl)c2)CC(C)(C)c2cc(C#N)[nH]c21` (stereo not drawn) [iso-propyl 6-(3-chlorobenzoyl)-2-cyano-4,4-dimethyl-1,4,5,6,7,8-hexahydropyrrolo[2,3-d]azepine-8-carboxylate], 1300 nM. In the case of `CC(C)OC(=O)C1CN(C(=O)c2ccc(Cl)cc2)CC(C)(C)c2cc(C#N)[nH]c21` (stereo not drawn) [iso-propyl 6-(4-chlorobenzoyl)-2-cyano-4,4-dimethyl-1,4,5,6,7,8-hexahydropyrrolo[2,3-d]azepine-8-carboxylate] it was 4100 nM; in that of `CC(C)OC(=O)C1CN(C(=O)C2CCOCC2)CC(C)(C)c2cc(C#N)[nH]c21` (stereo not drawn) [isopropyl 2-cyano-4,4-dimethyl-6-(tetrahydro-2H-pyran-4-ylcarbonyl)-1,4,5,6,7,8-hexahydropyrrolo[2,3-d]azepine-8-carboxylate], 3300 nM; in that of `CC(C)OC(=O)C1CN(C(=O)c2ccc(F)c(F)c2)CC(C)(C)c2cc(C#N)[nH]c21` (stereo not drawn) [isopropyl 2-cyano-6-(3,4-difluorobenzoyl)-4,4-dimethyl-1,4,5,6,7,8-hexahydropyrrolo[2,3-d]azepine-8-carboxylate], 280 nM. In the case of `CC(C)OC(=O)C1CN(C(=O)c2cccc(F)c2)CC(C)(C)c2cc(C#N)[nH]c21` (stereo not drawn) [isopropyl 2-cyano-6-(3-fluorobenzoyl)-4,4-dimethyl-1,4,5,6,7,8-hexahydropyrrolo[2,3-d]azepine-8-carboxylate] it was 1300 nM; in that of `CC(C)OC(=O)C1CN(C(=O)c2ccc(F)cc2)CC(C)(C)c2cc(C#N)[nH]c21` (stereo not drawn) [isopropyl 2-cyano-6-(4-fluorobenzoyl)-4,4-dimethyl-1,4,5,6,7,8-hexahydropyrrolo[2,3-d]azepine-8-carboxylate], 640 nM.

Usually EC50 stands for the concentration giving half of the maximal effect.
